Assay results: patent publication US4327178A, “Urinary kallikrein assay: specific substrates and assay method” (University of Miami, priority 1981, dated 1982)
Where a SMILES comes first, the peptide text is derived from it. The star is where a group is joined. (3H)benzylamide = C-terminal benzylamide carrying tritium label; (3H)anilide = C-terminal anilide carrying tritium label; pNA = O=[N+]([O-])c1ccc(N*)cc1; Bz = O=C(c1ccccc1)*; X2 = Ic1cccc(CN*)c1; X3 = Ic1ccc(CN*)cc1; X1 = Ic1ccc(N*)cc1

Experiments:
Assay type in all cases: biochemical
[1] = target: T1, human urinary kallikrein (Homo sapiens, UniProt P06870); assay: Assay of human urinary kallikrein: suitability as substrate (in words)
T1 construct: dialyzed or gel-filtered human urine in the general A1 assay
T1 sequence (P06870 25-262): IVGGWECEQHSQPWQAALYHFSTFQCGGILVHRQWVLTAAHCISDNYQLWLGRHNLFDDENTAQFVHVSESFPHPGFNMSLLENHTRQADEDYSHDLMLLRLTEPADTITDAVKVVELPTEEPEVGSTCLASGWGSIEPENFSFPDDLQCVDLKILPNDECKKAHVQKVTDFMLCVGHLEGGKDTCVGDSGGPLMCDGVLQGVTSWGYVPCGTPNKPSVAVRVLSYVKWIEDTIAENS
Experimental: Human urine is treated to remove low molecular weight impurities, either by overnight dialysis against 0.9%(w/v) NaCl or by gel filtration. A typical reaction mixture may contain 50 μl dialyzed urine and 0.1 μCi of substrate at a final concentration of 20 ng/ml buffered with 0.1 M tris-HCl, pH 9.5, in a total reaction volume of 100 μl. Reaction tubes are incubated at 37° C. for two hours. Variations of incubation time and temperature for the purpose of increasing or decreasing the amount of product formed are known expedients within the scope of ordinary skill in the art. Reactions may be stopped by any technique which causes rapid termination of the enzyme-catalyzed reaction without significant alteration of the product concentration. Use of an excess volume of base, e.g., 1.0 ml of 0.1 NaOH, is preferred. The product is separated from the reaction mixture by extraction with a measured volume of an aprotic solvent such as toluene or ether, or by other suitable means such as ion-exchange chromatography. Where solvent extraction is employed, an aliquot of the solvent (containing reaction product) may be sampled for radioactivity counting. Scintillation counting is preferred for counting tritium, and use of an extracting solvent such as toluene or ether permits direct transfer of a solvent aliquot to the scintillation fluid.
A standard curve may be constructed substituting purified kallikrein for dialyzed urine. A unit of enzyme is defined herein as that amount required to hydrolyze substrate at an initial rate of 1% per minute at 37° C. The foregoing definition is applicable where the concentration of substrate is well below Km such that hydrolysis is first order with respect to substrate concentration. The number of kallikrein units/ml of dialyzed urine is given by [formula] where 1.0 ml of solvent is used for the extraction and an aliquot of 0.5 ml is taken for counting. The blank c.p.m. value is determined in a control reaction lacking enzyme but otherwise treated identically.

[2] = target: purified urinary kallikrein (Homo sapiens, UniProt P06870); assay: Urinary kallikrein-catalyzed hydrolysis of N-alpha-acylated substrates relative to non-acylated compounds; details: approximately 20 nM substrate, 60 ng purified urinary kallikrein, 100 μl 0.1 M tris HCl pH 9.5, 37° C., 15 minutes; conditions optimized for non-acylated substrate
purified urinary kallikrein, sequence (P06870 25-262): as above

[3] = target: T1, human urinary kallikrein; assay: Relative activity of halogenated (4-iodoanilide) substrates, spectrophotometric standard assay; details: 150 nmol substrate in 0.7 ml 0.05 tris-HCl, pH 8.1, 37° C.
Experimental: Unlabeled halogenated 4-iodoanilide substrates, prepared essentially as described in Example 5, were compared with respect to reaction rate with human urinary kallikrein in a standard assay. Each substrate, 150 nmol, was incubated with purified human urinary kallikrein in 0.7 ml of 0.05 tris-HCl, pH 8.1 at 37° C. At timed intervals, 100 μl of reaction mixture was added to 1.0 ml of 0.1 N NaOH. The resulting solution was extracted with CHCl3 and the organic phase was evaporated to dryness. The residue was dissolved in buffer and examined spectrophotometrically in the 240-300 nm range, where a difference spectrum between substrate and product is measureable. The results are shown in Table 1, with rates of hydrolysis expressed as nmol/min/mg enzyme.

[4] = target: T1, human urinary kallikrein; assay: Km and Vmax of substrates with purified human urinary kallikrein (Lineweaver-Burk double reciprocal plot)
Experimental: The double reciprocal plot method of H. Lineweaver and D. Burk (J.Am.Chem.Soc. 56, 658 (1934)) was used to estimate Km and Vmax for these substrates. Purified human urinary kallikrein prepared as described by Oza, N. B. and Ryan, J., supra, was used in this study. Reactions were conducted at 37° C. for 15 minutes with 62.5 ng of enzyme and the indicated amount of substrate, in 0.05 M tris-HCl pH 9.5. Reactions were terminated by the addition of a nine-fold excess of 0.1 N NaOH. The ^3 H-labeled product was separated from substrate by extraction with an equal volume (1 ml) of toluene. A 0.5 ml aliquot of the toluene phase was transferred to a scintillation vial containing a toluene-based scintillation fluid and counted. Results for H-ProPheArg-[^3 H]-benzylamide are shown in FIG. 1, and for H-ProPheArg-[^3 H]anilide in FIG. 2. The units of l/v were nmol^-1 min. Units of l/S were μmole^-1.liter.

[5] = tested on: Trypsin; assay: Reaction specificity: hydrolysis by serine proteases; details: 20 nM substrate, 0.1 M tris-HCl, 37° C., 15 minutes
Experimental: (§1) The hydrolysis of H-ProPheArg-[^3 H]benzylamide by a series of serine proteases was measured. Reactions were carried out using 20 nM substrate in 0.1 M tris-HCl buffer, pH 7.5 or pH 9.5, at 37° C. for 15 minutes in the presence of varied amounts of enzyme. The results are shown in Table 2, expressed as the amount of enzyme necessary to hydrolyze 10% of the substrate under the given conditions. "No hydrolysis" is used to denote no measureable reaction with a maximum of 0.5 mg/ml enzyme.

[6] = tested on: Plasmin; assay: as above; details: 20 nM substrate, 0.1 M tris-HCl, 37° C., 15 minutes
Experimental: as §1

[7] = target: T1, human urinary kallikrein; assay: as above; details: 20 nM substrate, 0.1 M tris-HCl, 37° C., 15 minutes
Experimental: as §1

[8] = tested on: α-Chymotrypsin; assay: as above; details: printed on the pH 9.5 line (pH 7.5 line blank); No hydrolysis = no measureable reaction with a maximum of 0.5 mg/ml enzyme; 20 nM substrate, 37° C., 15 minutes
Experimental: as §1

[9] = tested on: Urokinase; assay: as above; details: printed on the pH 9.5 line (pH 7.5 line blank); No hydrolysis = no measureable reaction with a maximum of 0.5 mg/ml enzyme; 20 nM substrate, 37° C., 15 minutes
Experimental: as §1

[10] = tested on: Thrombin; assay: as above; details: printed on the pH 9.5 line (pH 7.5 line blank); No hydrolysis = no measureable reaction with a maximum of 0.5 mg/ml enzyme; 20 nM substrate, 37° C., 15 minutes
Experimental: as §1

[11] = 62.5 ng purified enzyme, 0.05 M tris-HCl pH 9.5, 37° C., 15 minutes

In the case of N=C(N)NCCC[C@H](NC(=O)[C@H](Cc1ccccc1)NC(=O)[C@@H]1CCCN1C(=O)[C@@H](N)CO)C(=O)NCc1ccc(I)cc1 [H-SerProPheArg-4-iodobenzylamide] (H-SPFR-X3), the “activity as substrate for human urinary kallikrein (in words)” value (“activity as substrate” below) [1] is reported as “suitable substrates”.

For “H-PheSerProPheArg-[^3 H] anilide (H-FSPFR-{(3H)anilide})”, the “activity as substrate” value [1] was “substrates”.

In the case of [3H]c1cccc(CNC(=O)[C@H](CCCNC(=N)N)NC(=O)[C@H](Cc2ccccc2)NC(=O)[C@@H]2CCCN2C(=O)c2ccccc2)c1 [Benzoyl-ProPheArg-[^3 H]benzylamide], the “rate of hydrolysis relative to the non-acylated compounds” value [2] is reported as “about 1/2”.

In the case of [3H]c1cccc(CNC(=O)[C@H](CCCNC(=N)N)NC(=O)[C@H](Cc2ccccc2)NC(=O)[C@@H]2CCCN2C(=O)CCC(=O)O)c1 [succinyl derivative, Succinyl-ProPheArg-[^3 H]benzylamide], the “rate of hydrolysis relative to the non-acylated compounds” value [2] is reported as 1/10.

In the case of N=C(N)NCCC[C@H](NC(=O)[C@@H](N)Cc1ccccc1)C(=O)Nc1ccc(I)cc1 [Phe--Arg--4-iodoanilide], the “Rate of Hydrolysis” value [3] is reported as “Nil”.

In the case of “H-SerProPheArg-[^3 H]anilide (H-SPFR-{(3H)anilide})”, the “activity as substrate” value [1] is reported as “substrates”.

N=C(N)NCCC[C@H](NC(=O)[C@H](Cc1ccccc1)NC(=O)[C@@H]1CCCN1)C(=O)Nc1ccc(I)cc1 [Pro--Phe--Arg--4-iodoanilide] was tested, and the “Rate of Hydrolysis” value [3] was 0.73 nmol/min/mg enzyme.

In the case of [3H]c1cccc(CNC(=O)[C@H](CCCNC(=N)N)NC(=O)[C@H](Cc2ccccc2)NC(=O)[C@@H]2CCCN2C(C)=O)c1 [acetylated], the “rate of hydrolysis relative to the non-acylated compounds” value [2] is reported as “generally similar rates”.

For N=C(N)NCCC[C@H](NC(=O)[C@H](Cc1ccccc1)NC(=O)[C@@H]1CCCN1C(=O)[C@H](CO)NC(=O)[C@@H](N)Cc1ccccc1)C(=O)Nc1ccc(I)cc1 [Phe--Ser--Pro--Phe--Arg--4-iodoanilide] (H-FSPFR-X1), the “Rate of Hydrolysis” value [3] was 1.12 nmol/min/mg enzyme.

With H-ProPheArg-[^3 H]anilide the “activity as substrate” value [1] was “excellent substrate”, the Vmax [4, 11] was 0.39 mmol/min/mg protein and the Km ([4]; 62.5 ng purified enzyme, 0.05 M tris-HCl pH 9.5, 37° C., 15 minutes, listed as H-ProPheArg-[^3 H]-anilide) was 0.8 µM. The Km ([4]; 62.5 ng purified enzyme, 0.05 M tris-HCl pH 9.5, 37° C., 15 minutes, listed as ProPheArg-[^3 H] anilide) was roughly 0.8 µM and the Vmax ([4]; as summarised in the detailed description) was “approximately 0.39 mmol/min/mg”.

With N=C(N)NCCC[C@H](NC(=O)[C@H](Cc1ccccc1)NC(=O)[C@@H]1CCCN1C(=O)c1ccccc1)C(=O)Nc1ccc([N+](=O)[O-])cc1 [benzoyl-ProPheArg-p-nitroanilide, reference compound] (Bz-Pro-Phe-Arg-pNA) the “activity as substrate” value [1] was “inactive”.

In the case of “H-PheSerProPheArg-[^3 H]benzylamide (H-FSPFR-{(3H)benzylamide})”, the “activity as substrate” value [1] is reported as “suitable substrates”.

In the case of N=C(N)NCCC[C@H](NC(=O)[C@H](Cc1ccccc1)NC(=O)[C@@H]1CCCN1C(=O)[C@@H](N)CO)C(=O)NCc1cccc(I)c1 [H-SerProPheArg-3-iodobenzylamide] (H-SPFR-X2), the “activity as substrate” value [1] is reported as “suitable substrates”.

With N=C(N)NCCC[C@H](NC(=O)[C@H](Cc1ccccc1)NC(=O)[C@@H]1CCCN1C(=O)[C@H](CO)NC(=O)[C@@H](N)Cc1ccccc1)C(=O)NCc1cccc(I)c1 [H-PheSerProPheArg-3-iodobenzylamide] (H-FSPFR-X2) the “activity as substrate” value [1] was “suitable substrates”.

In the case of N=C(N)NCCC[C@H](NC(=O)[C@H](Cc1ccccc1)NC(=O)[C@@H]1CCCN1C(=O)[C@@H](N)CO)C(=O)Nc1ccc(I)cc1 [Ser--Pro--Phe--Arg--4-iodoanilide] (H-SPFR-X1), the “Rate of Hydrolysis” value [3] is reported as 0.62 nmol/min/mg enzyme.

N=C(N)NCCC[C@H](NC(=O)[C@H](Cc1ccccc1)NC(=O)[C@@H]1CCCN1C(=O)[C@H](CO)NC(=O)[C@@H](N)Cc1ccccc1)C(=O)NCc1ccc(I)cc1 [H-PheSerProPheArg-4-iodobenzylamide] (H-FSPFR-X3) was tested, and the “activity as substrate” value [1] was “suitable substrates”.

For [3H]c1cccc(CNC(=O)[C@H](CCCNC(=N)N)NC(=O)[C@H](Cc2ccccc2)NC(=O)[C@@H]2CCCN2)c1 [H-ProPheArg-[^3 H]benzylamide, H-ProPheArg-[^3 H] benzylamide], the “Amount of Enzyme Required for 10% Hydrolysis” value ([5]; pH 7.5) was 400 ng, the “Amount of Enzyme Required for 10% Hydrolysis” value ([5]; pH 9.5) was 1,030 ng and the “Amount of Enzyme Required for 10% Hydrolysis” value ([6]; pH 7.5) was 17,200 ng. For the same compound, the “Amount of Enzyme Required for 10% Hydrolysis” value ([6]; pH 9.5) was 30,600 ng, the “Amount of Enzyme Required for 10% Hydrolysis” value ([7]; pH 7.5) was 265 ng and the “Amount of Enzyme Required for 10% Hydrolysis” value ([7]; pH 9.5) was 45 ng. For the same compound, the “Amount of Enzyme Required for 10% Hydrolysis (as enzyme concentration, in brackets)” value ([7]; pH 9.5) was 10 nM, the “Amount of Enzyme Required for 10% Hydrolysis” value [8] was “No hydrolysis” and the “Amount of Enzyme Required for 10% Hydrolysis” value [9] was “No hydrolysis”. For the same compound, the “Amount of Enzyme Required for 10% Hydrolysis” value [10] was “No hydrolysis”, the Km [4, 11] was 3 µM and the Vmax [4, 11] was 0.88 mmol/min/mg protein.

“H-SerProPheArg-[^3 H]-benzylamide (H-SPFR-{(3H)benzylamide})” was tested, and the “activity as substrate” value [1] was “suitable substrates”.

With [3H]c1cccc(CNC(=O)[C@H](CCCNC(=N)N)NC(=O)[C@H](Cc2ccccc2)NC(=O)[C@@H]2CCCN2C(=O)C2CCCC2)c1 [cyclopentylcarbonylated] the “rate of hydrolysis relative to the non-acylated compounds” value [2] was “generally similar rates”.
